These results are taken from patent publication US11884659B1, “1-cyclopropyl-6-fluoro-4-oxo-7-(4-((5-(quinolin-2-ylmethyleneamino)-2-thioxo-1,3,4- thiadiazol-3(2H)-yl)methyl) piperazin-1-yl)-1,4-dihydroquinoline-3-carboxylic acid as an anti-inflammatory compound” (KING FAISAL UNIVERSITY, priority 2023, dated 2024).

The target in data set [1] is BSA (Bos taurus, UniProt P02769). Nature of the data set: Bovine Serum Albumin Assay (BSA), inhibition of heat-induced protein denaturation. Particulars: 20, 40, 60, 80 and 100 μg/mL; 0.4% w/v BSA, pH 6.4, 72° C. for 10 minutes; turbidity at 660 nm. Here is the method:
Bovine Serum Albumin Assay (BSA)
In vitro-inflammatory activities of the tested samples were determined using a modified method of the BSA assay reported by Williams et al. BSA solution (0.4%, w/v) was prepared in Tris Buffered Saline. The pH was adjusted to 6.4 with glacial acetic acid. Different dilutions of 20, 40, 60, 80, and 100 μg/mL of 1-cyclopropyl-6-fluoro-4-oxo-7-(4-((5-(quinolin-2-ylmethyleneamino)-2-thioxo-1,3,4-thiadiazol-3(2H)-yl)methyl)piperazin-1-yl)-1,4-dihydroquinoline-3-carboxylic acid (IV) the stock solutions were added to test tubes containing 1 mL of 0.4%, w/v BSA buffer solution. Both negative (solvent) and positive (aspirin) controls were assayed in a similar manner. The solutions were then heated in a water bath at 72° C. for 10 minutes and cooled for 20 minutes under laboratory conditions. The turbidity of the solutions (level of protein precipitation) was measured at 660 nm in Spectrophotometer (V-770 UV-Visible/NIR Spectrophotometer). The percentage inhibition of precipitation (protein denaturation) was determined relative to the negative control using the following equation:
[formula] [formula] Anti-Inflammatory Activity

BSA, sequence (P02769 25-607): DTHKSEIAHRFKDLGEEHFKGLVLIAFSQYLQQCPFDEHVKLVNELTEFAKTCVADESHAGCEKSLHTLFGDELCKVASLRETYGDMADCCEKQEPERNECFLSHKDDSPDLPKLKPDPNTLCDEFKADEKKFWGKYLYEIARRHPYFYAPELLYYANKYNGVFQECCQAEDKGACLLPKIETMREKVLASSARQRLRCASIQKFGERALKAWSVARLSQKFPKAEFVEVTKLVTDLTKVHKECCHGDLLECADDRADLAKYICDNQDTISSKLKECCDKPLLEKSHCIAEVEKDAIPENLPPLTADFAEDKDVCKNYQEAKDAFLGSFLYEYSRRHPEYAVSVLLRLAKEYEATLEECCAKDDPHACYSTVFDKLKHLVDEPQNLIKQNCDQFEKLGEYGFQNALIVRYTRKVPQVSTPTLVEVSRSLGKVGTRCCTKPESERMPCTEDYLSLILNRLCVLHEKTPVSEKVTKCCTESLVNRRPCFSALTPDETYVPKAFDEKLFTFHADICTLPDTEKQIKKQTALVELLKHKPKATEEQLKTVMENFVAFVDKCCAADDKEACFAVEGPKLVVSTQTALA

With `O=C(O)c1cn(C2CC2)c2cc(N3CCN(Cn4nc(/N=C/c5ccc6ccccc6n5)sc4=S)CC3)c(F)cc2c1=O` [IV, 1-cyclopropyl-6-fluoro-4-oxo-7-(4-((5-(quinolin-2-ylmethyleneamino)-2-thioxo-1,3,4-thiadiazol-3(2H)-yl)methyl)piperazin-1-yl)-1,4-dihydroquinoline-3-carboxylic acid], the melting point lay in the range of 232 to 235 °C. The “in vitro anti-inflammatory activity (inhibition of protein denaturation)” value in data set [1] is listed as “considerable anti-inflammatory effect”.

The melting point is the temperature, or range, at which the solid turns liquid.
